In PMC6982974, “Structure-Based Virtual Screening and Biological Evaluation of Peptide Inhibitors for Polo-Box Domain” (Molecules, 2019):
Like-named read-outs stand apart in the source and are kept apart here. Non-standard residues stand in square brackets, D forms with d. Residues, ends and D or L forms follow the SMILES beside them. Phe(3,4-Cl2) = N[C@@H](Cc1ccc(Cl)c(Cl)c1)C(=O)O; pT = C[C@@H](OP(=O)(O)O)[C@H](N)C(=O)O

Key:
Format in all cases: binding
human PLK1-PBD protein = biological target: T1, human PLK1-PBD protein (Homo sapiens, UniProt P53350); assay: Competitive fluorescence polarization (FP) assay, PLK1-PBD inhibition
T1 construct: a C-terminal polo-box domain (PBD)
Description: (§1) To test the binding ability of 9 peptides to the PLK1-PBD, a competitive fluorescence polarization (FP) assay was performed (Table S1).
(§2) A total of 20 μL of 200 nM human PLK1-PBD protein in phosphate-buffered saline (PBS, pH 7.4) was mixed with 20 μL of tested peptides at various concentrations in each well of a 384-well black bottom plate (Corning 3575, Thermo Scientific, Massachusetts, USA). Then, 20 μL of 30 nM probe was added to each well. The plate was shaken at room temperature for 40 min. The polarization values in millipolarization units (mP) were measured at excitation/emission wave lengths of 485/535 nm using a SpectraMax Paradigm Multi-Mode Detection Platform (Molecular-Devices, Tokyo, Japan). The percentage inhibition of the tested peptides at each concentration was defined as […] 1 − (Pobs − Pmin)/(Pmax − Pmin). Pmax is the polarization of the wells containing PLK1-PBD and the probe, Pmin is the polarization of the free probe, and the Pobs is the polarization for the wells containing the peptides with a series of concentrations. According to a previously reported method, FITC-GPMQSpTPLNG-OH was used as the fluorescein-labeled peptide, which was dissolved in dimethyl sulfoxide (DMSO) and the final optimized concentration was set at 20 nM. Phosphopeptides used for competition binding assays were dissolved in assay buffer. The buffer is made up of 50 mM NaCl, 10 mM Tris (pH 8.0), 1 mM EDTA and 0.1% Nonidet P-40. We further performed the sensitivity by synthesizing two fluorescent probes, FITC-GPMQTSpTPKNG-OH for PLK2-PBD and FITC-GPLATSpTPKNG-OH for PLK3-PBD, respectively. All experiments were performed in triplicate and the data were analyzed using GraphPad Prism 6.0 software (GraphPad Software, San Diego, CA, USA).

PLK2-PBD = biological target: T2, PLK2-PBD (Homo sapiens, UniProt Q9NYY3); assay: Competitive fluorescence polarization (FP) assay, selectivity vs PLK2-PBD
T2 sequence (Q9NYY3 355-685 limits assumed): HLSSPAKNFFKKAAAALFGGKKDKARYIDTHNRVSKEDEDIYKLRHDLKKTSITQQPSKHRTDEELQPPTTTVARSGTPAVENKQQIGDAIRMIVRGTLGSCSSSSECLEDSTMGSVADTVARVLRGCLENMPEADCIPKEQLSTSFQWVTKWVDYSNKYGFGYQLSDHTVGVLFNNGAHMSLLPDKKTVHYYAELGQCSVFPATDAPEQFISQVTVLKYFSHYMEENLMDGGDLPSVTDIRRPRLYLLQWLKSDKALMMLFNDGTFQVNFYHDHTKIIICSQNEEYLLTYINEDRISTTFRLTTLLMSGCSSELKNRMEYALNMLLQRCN
Description: as §1
as §2, with “According to a previously reported method, FITC-GPMQSpTPLNG-OH was used as the fluorescein-labeled peptide, which was dissolved in dimethyl sulfoxide (DMSO) and the final optimized concentration was set at 20 nM. Phosphopeptides used for competition binding assays were dissolved in assay buffer. The buffer is made up of 50 mM NaCl, 10 mM Tris (pH 8.0), 1 mM EDTA and 0.1% Nonidet P-40. We further performed the sensitivity by synthesizing two fluorescent probes, FITC-GPMQTSpTPKNG-OH for PLK2-PBD and FITC-GPLATSpTPKNG-OH for PLK3-PBD, respectively.” left out

PLK3-PBD = biological target: T3, PLK3-PBD (Homo sapiens, UniProt Q9H4B4); assay: Competitive fluorescence polarization (FP) assay, selectivity vs PLK3-PBD
T3 sequence (Q9H4B4 335-646 limits assumed): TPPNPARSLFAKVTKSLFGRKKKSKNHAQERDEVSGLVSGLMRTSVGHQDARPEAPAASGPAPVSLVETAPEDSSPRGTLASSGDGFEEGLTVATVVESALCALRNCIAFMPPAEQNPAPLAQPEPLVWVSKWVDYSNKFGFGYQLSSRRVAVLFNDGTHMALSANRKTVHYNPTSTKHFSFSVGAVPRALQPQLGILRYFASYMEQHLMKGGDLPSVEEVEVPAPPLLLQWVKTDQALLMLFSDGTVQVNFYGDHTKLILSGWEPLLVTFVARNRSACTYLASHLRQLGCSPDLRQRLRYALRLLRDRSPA
Description: as §1
as §2, with “According to a previously reported method, FITC-GPMQSpTPLNG-OH was used as the fluorescein-labeled peptide, which was dissolved in dimethyl sulfoxide (DMSO) and the final optimized concentration was set at 20 nM. Phosphopeptides used for competition binding assays were dissolved in assay buffer. The buffer is made up of 50 mM NaCl, 10 mM Tris (pH 8.0), 1 mM EDTA and 0.1% Nonidet P-40. We further performed the sensitivity by synthesizing two fluorescent probes, FITC-GPMQTSpTPKNG-OH for PLK2-PBD and FITC-GPLATSpTPKNG-OH for PLK3-PBD, respectively.” left out

[1] = probe FITC-GPMQSpTPLNG-OH, room temperature 40 min, performed in triplicate, read-out: IC50
[2] = at 1 μM inhibitor concentration

T1 sequence (P53350 326-603 limits assumed): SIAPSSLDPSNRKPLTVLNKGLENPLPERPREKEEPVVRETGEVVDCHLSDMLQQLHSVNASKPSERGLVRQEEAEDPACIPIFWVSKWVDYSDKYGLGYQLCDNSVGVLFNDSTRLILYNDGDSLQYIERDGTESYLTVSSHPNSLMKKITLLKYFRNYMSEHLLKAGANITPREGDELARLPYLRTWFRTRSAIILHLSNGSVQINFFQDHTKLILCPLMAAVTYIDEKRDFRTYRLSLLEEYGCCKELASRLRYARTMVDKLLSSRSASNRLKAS

Row | Structure (SMILES) | IC50 (human PLK1-PBD protein; [1]) | also measured
1 | CC[C@H](C)[C@H](NC(=O)[C@H](C)NC(=O)[C@@H](NC(=O)[C@H](CO)NC(=O)[C@H](Cc1c[nH]cn1)NC(=O)[C@H](CC(C)C)NC(=O)[C@@H]1CCCN1C(=O)[C@@H]1CCCN1C(=O)[C@H](CCC(=O)O)NC(=O)[C@@H](N)Cc1ccc(O)cc1)[C@@H](C)OP(=O)(O)O)C(=O)NCC(=O)O [Peptide 1] (H-YEPPLHS[pT]AIG-OH) | 320 ± 20 nM | 
2 | CC[C@H](C)[C@H](NC(=O)[C@H](C)NC(=O)[C@@H](NC(=O)[C@H](CO)NC(=O)[C@H](Cc1c[nH]cn1)NC(=O)[C@H](CC(C)C)NC(=O)[C@@H]1CCCN1C(=O)[C@@H]1CCCN1C(=O)[C@H](CC(=O)O)NC(=O)[C@@H](N)Cc1c[nH]c2ccccc12)[C@@H](C)OP(=O)(O)O)C(=O)O [Peptide 2] (H-WDPPLHS[pT]AI-OH) | 190 ± 10 nM | 
3 | CC[C@H](C)[C@H](NC(=O)[C@H](C)NC(=O)[C@@H](NC(=O)[C@H](CO)NC(=O)[C@H](Cc1c[nH]cn1)NC(=O)[C@H](CC(C)C)NC(=O)[C@@H]1CCCN1C(=O)[C@@H]1CCCN1C(=O)[C@H](CCC(=O)O)NC(=O)[C@@H](N)Cc1ccccc1)[C@@H](C)OP(=O)(O)O)C(=O)O [Peptide 3] (H-FEPPLHS[pT]AI-OH) | 290 ± 20 nM | 
4 | CC(C)C[C@H](NC(=O)[C@@H]1CCCN1C(=O)[C@@H]1CCCN1C(=O)[C@H](CCC(=O)O)NC(=O)[C@@H](N)Cc1ccccc1)C(=O)N[C@@H](Cc1c[nH]cn1)C(=O)N[C@@H](CO)C(=O)N[C@H](C(=O)N[C@@H](C)C(=O)NCC(=O)O)[C@@H](C)OP(=O)(O)O [Peptide 4] (H-FEPPLHS[pT]AG-OH) | 160 ± 20 nM | 
5 | CC(C)C[C@H](NC(=O)[C@@H]1CCCN1C(=O)[C@@H]1CCCN1C(=O)[C@H](CC(N)=O)NC(=O)[C@@H](N)Cc1ccc(Cl)c(Cl)c1)C(=O)N[C@@H](Cc1c[nH]cn1)C(=O)N[C@@H](CO)C(=O)N[C@H](C(=O)N[C@@H](C)C(=O)O)[C@@H](C)OP(=O)(O)O [Peptide 5] (H-[Phe(3,4-Cl2)]NPPLHS[pT]A-OH) |  | IC50 (human PLK1-PBD protein; triplicates, mean ± SD of three data sets, read-out: IC50 PLK1-PBD): 70 nM; IC50 (PLK2-PBD; Table S2, probe FITC-GPMQTSpTPKNG-OH, triplicates): > 1000 nM; inhibition at 1 µM (PLK2-PBD; [2]): ≤ 10%; IC50 (PLK3-PBD; Table S2, probe FITC-GPLATSpTPKNG-OH, triplicates): > 1000 nM; inhibition at 1 µM (PLK3-PBD; [2]): ≤ 10%
6 | CC(C)C[C@H](NC(=O)[C@@H]1CCCN1C(=O)[C@@H]1CCCN1C(=O)[C@H](C)NC(=O)[C@@H](N)Cc1c[nH]c2ccccc12)C(=O)N[C@@H](Cc1c[nH]cn1)C(=O)N[C@@H](CO)C(=O)N[C@H](C(=O)N[C@@H](C)C(=O)N[C@@H](CCCCN)C(=O)O)[C@@H](C)OP(=O)(O)O [Peptide 6] (H-WAPPLHS[pT]AK-OH) | 350 ± 110 nM | 
7 | CC(C)C[C@H](NC(=O)[C@@H]1CCCN1C(=O)[C@@H]1CCCN1C(=O)[C@H](CCCCN)NC(=O)[C@@H](N)Cc1c[nH]c2ccccc12)C(=O)N[C@@H](Cc1c[nH]cn1)C(=O)N[C@@H](CO)C(=O)N[C@H](C(=O)N[C@@H](C)C(=O)NCC(=O)O)[C@@H](C)OP(=O)(O)O [Peptide 7] (H-WKPPLHS[pT]AG-OH) | 420 ± 200 nM | 
8 | CC(C)C[C@H](NC(=O)[C@@H]1CCCN1C(=O)[C@@H]1CCCN1C(=O)[C@H](CCCCN)NC(=O)[C@@H](N)Cc1c[nH]cn1)C(=O)N[C@@H](Cc1c[nH]cn1)C(=O)N[C@@H](CO)C(=O)N[C@H](C(=O)N[C@@H](C)C(=O)O)[C@@H](C)OP(=O)(O)O [Peptide 8] (H-HKPPLHS[pT]A-OH) | 610 ± 320 nM | 
9 | CC(C)C[C@H](NC(=O)[C@@H]1CCCN1C(=O)[C@@H]1CCCN1C(=O)[C@H](CCC(N)=O)NC(=O)[C@@H](N)Cc1c[nH]cn1)C(=O)N[C@@H](Cc1c[nH]cn1)C(=O)N[C@@H](CO)C(=O)N[C@H](C(=O)N[C@@H](C)C(=O)O)[C@@H](C)OP(=O)(O)O [Peptide 9] (H-HQPPLHS[pT]A-OH) | 720 ± 240 nM | 
10 | CSCC[C@H](NC(=O)[C@@H]1CCCN1C(=O)CNC(=O)[C@H](C)NC(=O)[C@@H](N)CCSC)C(=O)N[C@@H](CCC(N)=O)C(=O)N[C@@H](CO)C(=O)N[C@H](C(=O)N1CCC[C@H]1C(=O)N[C@@H](CC(C)C)C(=O)N[C@@H](CC(N)=O)C(=O)NCC(=O)N[C@@H](C)C(=O)N[C@@H](CCCCN)C(=O)N[C@@H](CCCCN)C(=O)O)[C@@H](C)OP(=O)(O)O [Polo b oxtide, reference compound] (H-MAGPMQS[pT]PLNGAKK-OH) | 7920 ± 1030 nM | 
